{"source": "patent US20250213543A1", "about": "“AN EMBRYONIC ECTODERM DEVELOPMENT INHIBITOR FOR THE TREATMENT OF SICKLE CELL DISEASE” (Fulcrum Therapeutics, Inc., priority 2022, published 2025)", "assay_type_in_all_cases": "in vivo, human", "key": {"[1]": {"test": "Phase 1 SAD/MAD clinical study in healthy volunteers: safety and tolerability", "source_text": "(§1) This is a study of the safety, tolerability, pharmacokinetics (PK) and pharmacodynamics (PD) of Compound 1 from a Phase 1, single ascending dose (SAD) and multiple ascending dose (MAD) clinical study.\n(§2) Healthy volunteers received oral placebo vs. single oral doses of Compound 1 in the SAD cohorts, or oral placebo vs. single oral doses of Compound 1 once daily (QD) for 14 consecutive days in the MAD cohorts. Safety assessments included AEs, vital signs, ECGs, and laboratory parameters. PK/PD blood sampling was performed pre-dose and Days 1 and 2 in the SAD cohorts, and Days 1, 2, 7, 8 and 12-15 in the MAD cohorts. Target engagement was assessed as change from baseline in H3K27me3/Total Histone H3 ratio. PD assessments included changes in F reticulocytes and HBG mRNA.\n(§3) Compound 1 was evaluated in […] healthy volunteer (HV) SAD cohorts (2 to 60 mg), […] HV MAD cohorts (2 to 30 mg QD, 14-day dosing). SAD dose cohorts include 2 mg, 4 mg, 6 mg, 10 mg, 20 mg, 30 mg, 40 mg, and 60 mg Compound 1. MAD dose cohorts include 2 mg, 4 mg, 6 mg, 10 mg, 20 mg, and 30 mg Compound 1."}, "[2]": {"test": "Phase 1 SAD/MAD clinical study in healthy volunteers: pharmacokinetics", "details": "oral, across all doses", "source_text": "as §1, §2, §3"}, "[3]": {"test_system": "H3K27me3/Total Histone H3 ratio", "test": "Phase 1 SAD/MAD study: target engagement (change from baseline in H3K27me3/Total Histone H3 ratio)", "details": "healthy volunteers; across the entire dose range", "method": "as §2"}, "HBG mRNA": {"test_system": "HBG mRNA", "test": "Phase 1 MAD study: HBG mRNA induction", "method": "as §2\nSafety Follow-up (SFU) samples were collected 7-10 days post 14-day treatment period.\n(§4) Data in FIG. 1 and FIG. 2 are presented as geometric LS mean ratios (to placebo) with a 95% confidence interval. Mixed-effects model for repeated measures (MMRM) analysis was performed for Day 7 and Day 14 measurements. An analysis of covariance (ANCOVA) was utilized for SFU data. In FIG. 1 and FIG. 2, “PBO” is placebo."}, "F-reticulocytes": {"test_system": "F-reticulocytes", "test": "Phase 1 MAD study: F-reticulocytes", "details": "safety follow-up (SFU) visits 7-10 days post 14-day treatment; dosed at ≥6 mg", "method": "as §2\nIncreases in F-cells and HbF protein are projected with longer treatment duration.\nas §4"}, "fetal hemoglobin (HbF)": {"test_system": "fetal hemoglobin (HbF)", "test": "Phase 1 open-label multiple-dose study in subjects with sickle cell disease: HbF induction by HPLC", "source_text": "(§5) This is a Phase 1 multicenter, open-label study evaluating the safety, tolerability, pharmacokinetics (PK), fetal hemoglobin (HbF) induction and biological activity of Compound 1 in subjects 18-65 years of age with sickle cell disease (SCD). This study comprises 2 parts and is being conducted in subjects 18-65 years of age with sickle cell disease (SCD) either taking hydroxyurea (HU) at a stable dose for at least the preceding 3 months, or not taking hydroxyurea (HU).\n(§6) The study consists of two phases. In Part A, Cohort 1 received 6 mg of Compound 1 by mouth once daily for 4 weeks, Cohort 2 received 2 mg of Compound 1 by mouth once daily for 4 weeks, and Cohort 3 received 12 mg of Compound 1 by mouth once daily for 4 weeks. An additional cohort may receive up to and including 20 mg of Compound 1 by mouth once daily for 4 weeks depending on the Data Monitoring Committee [DMC] review. Additional cohorts (up to five total cohorts) may be added based on the safety and pharmacokinetic data observed in subjects from the prior and ongoing cohorts. Up to 10 subjects have been or will be enrolled in each treatment arm.\nPart B is the extension study. Eligible subjects who consent to continue in the extension study continue on treatment at the same dose level selected in Part A for an additional 8 weeks. Subjects who decline to participate in the extension study are followed for an additional 2-3 weeks.\nThe primary endpoints of the study are to evaluate the safety and tolerability of Compound 1 as measured by the frequency of adverse events and to evaluate single and multiple-dose pharmacokinetics of Compound 1 in subjects with sickle cell disease. Secondary endpoints include evaluating the effect of Compound 1 on fetal hemoglobin induction in peripheral blood, as well as changes from baseline in reticulocytes, in subjects with sickle cell disease. Exploratory endpoints include biomarkers of hemolysis, target engagement, incidence of vaso-occlusive crises (VOCs), and quality of life (QOL) measurements."}, "[4]": {"test": "Phase 1 open-label multiple-dose study in subjects with sickle cell disease: safety and tolerability", "details": "oral once daily", "source_text": "as §5, §6\nPart B is the extension study. […]\n(§7) The primary endpoints of the study are to evaluate the safety and tolerability of Compound 1 as measured by the frequency of adverse events and to evaluate single and multiple-dose pharmacokinetics of Compound 1 in subjects with sickle cell disease. […]"}, "red blood cells": {"test_system": "red blood cells", "test": "Phase 1 open-label study in subjects with sickle cell disease: hemolysis and anemia markers (RDW, reticulocytes, total hemoglobin)", "details": "SCD Cohort 1, 6 mg once daily", "source_text": "as §5, §6, §7"}, "[5]": {"details": "SAD 2 to 60 mg, MAD 2 to 30 mg QD 14-day oral dosing"}}}
{"smiles": "Cc1ncccc1-c1cc2c(n3cnnc13)NCc1c(F)ccc3c1[C@H](CO3)CO2", "note": "[Compound 1]", "values": [{"measurement": "SAEs or discontinuations", "setting": "[1]; [5]", "value": "no SAEs or discontinuations"}, {"measurement": "Treatment-related adverse events", "setting": "[1]; [5]", "value": "mild (Grade 1 or 2)"}, {"measurement": "Tolerability / safety signals", "setting": "[1]; SAD and MAD cohorts", "value": "generally well tolerated and no unexpected safety signals were detected"}, {"measurement": "PK profiles", "setting": "[2]", "value": "dose proportionality across all doses"}, {"measurement": "Target engagement", "setting": "[3]", "value": "Robust target engagement"}, {"measurement": "HBG mRNA induction dependence", "setting": "HBG mRNA; MAD cohorts, FIG. 1", "value": "both time- and dose-dependent"}, {"measurement": "placebo-adjusted increases from baseline in HBG mRNA", "setting": "HBG mRNA; healthy volunteers, 6-30 mg MAD cohorts, QD 14 days oral", "value": "2.4-6.2 fold"}, {"measurement": "mean fold increase in F-reticulocytes", "setting": "F-reticulocytes", "value": "1.7-3.9 fold"}, {"measurement": "response differences in HU versus non-HU treated subjects", "setting": "fetal hemoglobin (HbF); SCD Cohort 1, 6 mg once daily, Subjects 7 and 8", "value": "no apparent response differences"}, {"measurement": "HbF increase", "setting": "fetal hemoglobin (HbF); SCD Cohort 1, 6 mg orally once daily, Subjects 7 and 8 (with and without HU), day 84", "value": "6.8%-9.5%"}, {"measurement": "HbF response across doses", "setting": "fetal hemoglobin (HbF); SCD Cohorts 1 and 2 (6 mg and 2 mg orally once daily)", "value": "dose-dependent, clinically relevant and consistent increase in HbF"}, {"measurement": "absolute HbF increases from baseline", "setting": "fetal hemoglobin (HbF); SCD, a subject in the 12 mg dose cohort (Cohort 3), after 42 days of treatment", "value": "up to 10.0%"}, {"measurement": "Tolerability", "setting": "[4]", "value": "generally well tolerated"}, {"measurement": "absolute reticulocyte count and total hemoglobin", "setting": "red blood cells", "value": "reductions in reticulocytes and increases in total hemoglobin"}, {"measurement": "red cell distribution width (RDW)", "setting": "red blood cells; Subjects 7 and 8", "value": "reductions in RDW"}]}
